Several values for one entry are separate records, joined by “and”; a condition that tells them apart may be missing. Equal values may be shown once. Read-outs that look alike come from different tables or passages of the source.
Assays:
[1] = test system: celiac subjects, with sideropenic anemia; assay: Efficiency comparison between oral iron bis-glycinate chelate (effervescent tablet of example 1) and conventional treatment in celiac patients; haemochromocytometric test; format: in vivo, human; conditions: for Serum iron values / Values of Ferritin: after initial therapy (Fe sulphate p.o. and/or sodium ferric gluconate i.v.); for Serum iron values / Values of Ferritin / Hb values: one patient per line
Description: 12 celiac subjects, with sideropenic anemia diagnosed according to the hemoglobin (Hb), ferritin and iron (serum iron) values obtained from the haemochromocytometric test were included in this experiment.
Celiac disease was diagnosed according to the clinical manifestations and histology reports regarding the intestinal mucosa.
These patients were then subjected to a therapy using the iron bis-glycinate chelate according to the invention, formulated in the effervescent tablet of example 1.
The hemoglobin (Hb), (Table 1), ferritin (Table 2) and serum iron (Table 3) values taken from each treated patient, both after the conventional therapy (oral and/or intravenous) and after the oral administration according to the present invention (effervescent tablet) were considered for the evaluation.
A therapy cycle corresponds to the treatment for 20 days with two effervescent tablets per day containing about 14 mg of iron ion per tablet and then, an effervescent tablet per day containing 14 mg of iron ion, for further 40 days.
The subsequent maintenance corresponds to the treatment for 20 days with two effervescent tablets per day containing about 14 mg of iron ion per tablet, every 3 months for about one year.
The hemoglobin, ferritin and serum iron blood values were determined after the first treatment cycle and the treatment was continued with repeated cycles according to the previously indicated methods.

celiac patients [2] = conditions: human, in vivo
Description: (§1) All patients were initially treated with ferrous sulphate orally (1 tablet of ferrous sulphate, corresponding to 105 mg of iron ion) for 40 days and/or with sodium ferric gluconate by intravenous administration for a variable period of time according to the seriousness of the anemic status.
(§2) All patients were diagnosed with celiac disease through bioptic sampling and with serological tests. During the conventional therapy, the diet of said patients was controlled and corrected with gluten-free foods.

celiac patients [3] = assay: Clinical records of celiac patients treated with conventional iron salts p.o. and i.v. (Examples 6-11)
Description: as §1, §2

[4] = cited from earlier work
[5] = with respect to mineral salts, such as ferrous sulphate; literature data; cited from earlier work
[6] = Patient I, ferric iron i.v., Final values, 20 days
[7] = Patient I, ferric iron i.v., Initial values, 20 days
[8] = Patient II, ferric iron i.v., Final values, few days
[9] = Patient II, ferric iron i.v., Initial values, few days
[10] = Patient IV, ferric iron i.v., Final values, 20 days
[11] = Patient IV, ferric iron i.v., Initial values, 20 days
[12] = Patient VI, iron i.v., Final values, 20 days
[13] = Patient VI, iron i.v., Initial values, 20 days
[14] = Patient I, ferrous sulphate oral, Final values, 40 days
[15] = Patient I, ferrous sulphate oral, Initial values, 40 days
[16] = Patient II, ferrous sulphate oral, Final values, 8/10 days
[17] = Patient II, ferrous sulphate oral, Initial values, 8/10 days
[18] = Patient III, ferrous sulphate oral, Final values, 40 days
[19] = Patient III, ferrous sulphate oral, Initial values, 40 days
[20] = Patient V, ferrous sulphate oral, Final values, 40 days
[21] = Patient V, ferrous sulphate oral, Initial values, 40 days
[22] = Patient I, iron polymaltosate oral, Final values, 20 days
[23] = Patient I, iron polymaltosate oral, Initial values, 20 days

sodium ferric gluconate
Serum iron values [1]: 30 µg/dL
Values of Ferritin [1]: 22 ng/mL
tolerability / adverse events of the treatment (celiac patients [2]; iv): skin rush and asthmatic crisis
Ferritin (celiac patients [3]; [6]): 30
Hb (celiac patients [3]; [6]): 9.8
Serum iron (celiac patients [3]; [6]): 48
Ferritin (celiac patients [3]; [7]): <5
Serum iron (celiac patients [3]; [7]): 19
Hb (celiac patients [3]; Patient I, ferric iron i.v., Initial values, 20 days, 1 vial/day for 10 days, then 2 vials/day): 7.7
Ferritin (celiac patients [3]; [8]): 33
Serum iron (celiac patients [3]; [8]): 49
Hb (celiac patients [3]; Patient II, ferric iron i.v., Final values, few days, cycle not completed): 10.8
Ferritin (celiac patients [3]; [9]): 31
Serum iron (celiac patients [3]; [9]): 40
Hb (celiac patients [3]; Patient II, ferric iron i.v., Initial values, few days, cycle not completed): 10.4
Ferritin (celiac patients [3]; [10]): 42
Hb (celiac patients [3]; [10]): 10.6
Serum iron (celiac patients [3]; [10]): 54
Ferritin (celiac patients [3]; [11]): 21
Serum iron (celiac patients [3]; [11]): 39
Hb (celiac patients [3]; Patient IV, ferric iron i.v., Initial values, 20 days, 1 vial/day for 10 days, then 2 vials/day): 9.7
values of Hb (celiac patients [3]; Patient IV, iron i.v., cycles every 3/4 months): around 11 gr/dl
Ferritin (celiac patients [3]; [12]): 81
Hb (celiac patients [3]; [12]): 12.6
Serum iron (celiac patients [3]; [12]): 68
Ferritin (celiac patients [3]; [13]): 35
Hb (celiac patients [3]; [13]): 10.2
Serum iron (celiac patients [3]; [13]): 41

NCC(=O)[O-].NCC(=O)[O-].[Fe+2] [Iron bis-glycinate chelate, iron bis-glycinate chelate]
hemoglobin, ferritin and serum iron value ([1]; after I therapy cycle, celiac patients): considerably increases
Hb values ([1]; after efferv. tab therapy 1st cycle: two effervescent tablets per day for 20 days, then one per day for 40 days): 12.5 g/100 ml and 12.0 g/100 ml (2×) and 13.1 g/100 ml and 11.7 g/100 ml and 11.8 g/100 ml and 12.8 g/100 ml and 12.3 g/100 ml and 12.7 g/100 ml and 11.9 g/100 ml and 12.1 g/100 ml and 10.0 g/100 ml
Hb values ([1]; after maintenance efferv. tab.: two tablets per day for 20 days every 3 months for about one year): 13.6 g/100 ml and 12.9 g/100 ml (2×) and 14.3 g/100 ml and 13.4 g/100 ml (2×) and 13.2 g/100 ml and 12.3 g/100 ml and 14.0 g/100 ml and 13.1 g/100 ml and 12.7 g/100 ml and 12.1 g/100 ml
adverse effects ([1]; oral treatment of 12 celiac patients with the effervescent tablet of example 1): did not reveal any adverse effects worth mentioning
hydrolysis ([4]; different pH values of the gastrointestinal section): does not undergo hydrolysis
separation into iron ion ([4]; pH interval comprised between 3 and 10): not separated into iron ion
bioavailability [5]: greater bioavailability

O=S(=O)([O-])[O-].[Fe+2] [ferrous sulphate]
Serum iron values [1]: 34 µg/dL and 16 µg/dL
Values of Ferritin [1]: 23 ng/mL and <5 ng/mL
tolerability / adverse events of the treatment (celiac patients [3]; Patient I - Female): intestinal intolerance
Ferritin (celiac patients [3]; [14]): 38
Serum iron (celiac patients [3]; [14]): 48
Hb (celiac patients [3]; Patient I, ferrous sulphate oral, Final values, duration 40 days): 11.1
Ferritin (celiac patients [3]; [15]): 32
Serum iron (celiac patients [3]; [15]): 41
Hb (celiac patients [3]; Patient I, ferrous sulphate oral, Initial values, duration 40 days): 10.2
Ferritin (celiac patients [3]; [16]): 45
Hb (celiac patients [3]; [16]): 12.3
Serum iron (celiac patients [3]; [16]): 68
Ferritin (celiac patients [3]; [17]): 41
Hb (celiac patients [3]; [17]): 11.6
Serum iron (celiac patients [3]; [17]): 55
Ferritin (celiac patients [3]; [18]): 27
Hb (celiac patients [3]; [18]): 10
Serum iron (celiac patients [3]; [18]): 38
Ferritin (celiac patients [3]; [19]): 19
Hb (celiac patients [3]; [19]): 9.1
Serum iron (celiac patients [3]; [19]): 32
Hb (celiac patients [3]; Patient V, ferrous sulphate oral, after several therapy cycles, Initial values, 40 days): 8.4
Ferritin (celiac patients [3]; [20]): 21
Hb (celiac patients [3]; [20]): 9.7
Serum iron (celiac patients [3]; [20]): 46
Ferritin (celiac patients [3]; [21]): <5
Serum iron (celiac patients [3]; [21]): 22

iron polymaltosate
tolerability / adverse events of the treatment (celiac patients [2]): well tolerated
Ferritin (celiac patients [3]; [22]): 25
Hb (celiac patients [3]; [22]): 10.8
Serum iron (celiac patients [3]; [22]): 43
Ferritin (celiac patients [3]; [23]): 29
Hb (celiac patients [3]; [23]): 10.6
Serum iron (celiac patients [3]; [23]): 38
